This note sets out measurements from patent publication US11959083B2, “Immunosuppression-reverting oligonucleotides inhibiting the expression of CD39” (Secarna Pharmaceuticals GmbH & Co. KG, priority 2016, dated 2024).

Data set [1] concerns mCD39 mRNA. The data set is described as follows: mCD39 mRNA knockdown efficacy screen in A20 cells (single dose, gymnotic delivery, QuantiGene Singleplex). As to conditions: 10 μM, three days, normalized to HPRT1. It is filed as cell-based, mouse. On the procedure:
FIG. 14-1 and 14-2 show mCD39 mRNA knockdown efficacy of mCD39 antisense oligonucleotides in the murine cancer cell line A20 (mouse B cell lymphoma). A20 cells were treated with a single dose of 10 μM of the respective antisense oligonucleotide. As negative control, cells were treated with neg1, an antisense oligonucleotide having the sequence CGTTTAGGCTATGTACTT (SEQ ID NO:99). Residual mCD39 mRNA expression relative to untreated cells is depicted. Expression values were normalized to expression of the housekeeping gene HPRT1.
In order to analyze the efficacy of mCD39 antisense oligonucleotides with regard to the knockdown of mCD39 mRNA expression in a cancer cell line, A20 (mouse B cell lymphoma, ATCC) cells were treated with a single dose (concentration: 10 μM without addition of any transfection reagent; this process is called gymnotic delivery) of the respective antisense oligonucleotide as indicated in FIG. 14. As control, cells were treated with neg1, an antisense oligonucleotide having the sequence CGTTTAGGCTATGTACTT (SEQ ID NO:99). mCD39 and HPRT1 mRNA expression was analyzed after three days using the QuantiGene Singleplex assay (Affymetrix) and mCD39 expression values were normalized to HPRT1 expression values.

Data set [2] deals with hCD39 mRNA. The data set is described as follows: hCD39 mRNA knockdown efficacy screen in A-172 cells (single dose, gymnotic delivery, QuantiGene Singleplex). It is filed as cell-based, human. As to conditions: 10 μM, 3 days. In short, it runs like this:
(§1)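 Antisense oligonucleotides given once at 10 μM without transfection reagent (gymnotic) to HDLM-2 or A-172 cells for 3 days. hCD39 mRNA measured by QuantiGene Singleplex, normalized to HPRT1 and expressed relative to untreated cells; triplicate means.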

In data set [3] the test system is hCD39 mRNA. The data set is described as follows: hCD39 mRNA knockdown efficacy screen in HDLM-2 cells (single dose, gymnotic delivery, QuantiGene Singleplex). As to conditions: 10 μM, 3 days. It is filed as cell-based, human. The method in brief: as §1
The subject of data set [4] is hCD39 mRNA. The data set is described as follows: IC50 determination / concentration-dependent hCD39 mRNA knockdown in HDLM-2 cells. It is filed as cell-based, human. As to conditions: for mRNA inhibition: HDLM-2, 3 days; for IC50: HDLM-2 cells, hCD39 mRNA, 3 days. In short, it runs like this: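 Antisense oligonucleotides applied to HDLM-2 cells for 3 days, titrated 10 μM down to 4.5 nM. hCD39 mRNA normalized to HPRT1 and expressed as residual level relative to untreated cells (100); mean of triplicates, IC50 from concentration-response.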

The mark [5] stands for this setting: second screening round, normalized to HPRT1.

l = locked nucleic acid (LNA); d = 2'-deoxy (DNA)

“+C*+C*+C*A*G*C*A*G*A*T*A*G*T*T*+A*+A*+T (antisense CCCAGCAGATAGTTAAT; sugars from the 5' end l3 d11 l3, all phosphorothioate, methylation of C not given here) [A04024MR]”: in data set [1], the “Relative mCD39 mRNA expression (compared to non-treated cells)” value is reported as 0.35.

“+A*+C*+A*T*T*T*C*T*T*A*C*T*C*+G*+T*+T (antisense ACATTTCTTACTCGTT; sugars from the 5' end l3 d10 l3, all phosphorothioate, methylation of C not given here) [A04022MR]”: in data set [1], the “Relative mCD39 mRNA expression (compared to non-treated cells)” value is recorded as 0.20.

Consider “+G*+C*+C*C*A*G*C*A*G*A*T*A*G*T*+T*+A*+A (antisense GCCCAGCAGATAGTTAA; sugars from the 5' end l3 d11 l3, all phosphorothioate, methylation of C not given here) [A04025MR]”, for which the “Relative mCD39 mRNA expression (compared to non-treated cells)” value in data set [1] turned out to be 0.35.

As to “+C*+G*+T*T*G*C*T*G*T*C*T*T*T*+G*+A*+T (antisense CGTTGCTGTCTTTGAT; sugars from the 5' end l3 d10 l3, all phosphorothioate, methylation of C not given here) [A04018MR]”, the “Relative mCD39 mRNA expression (compared to non-treated cells)” value in data set [1] was 0.18.

Consider “+T*+G*+G*C*A*C*T*G*T*T*C*G*T*+A*+G*+T (antisense TGGCACTGTTCGTAGT; sugars from the 5' end l3 d10 l3, all phosphorothioate, methylation of C not given here) [A04015MR]”, for which the “Relative mCD39 mRNA expression (compared to non-treated cells)” value in data set [1] was 0.32.

Take “+C*+C*+T*A*G*T*T*G*T*G*T*A*+T*+A*+C (antisense CCTAGTTGTGTATAC; sugars from the 5' end l3 d9 l3, all phosphorothioate, methylation of C not given here) [A04008MR]”: the “Relative mCD39 mRNA expression (compared to non-treated cells)” value in data set [1] came out at 0.58.

Regarding “+C*+C*+T*A*G*T*T*G*T*G*T*A*T*+A*+C*+T (antisense CCTAGTTGTGTATACT; sugars from the 5' end l3 d10 l3, all phosphorothioate, methylation of C not given here) [A04021MR]”, the “Relative mCD39 mRNA expression (compared to non-treated cells)” value in data set [1] stood at 0.35.

For the substance “+C*+T*+G*T*T*C*G*T*A*G*T*C*+T*+C*+C (antisense CTGTTCGTAGTCTCC; sugars from the 5' end l3 d9 l3, all phosphorothioate, methylation of C not given here) [A04004MR]”, the “Relative mCD39 mRNA expression (compared to non-treated cells)” value in data set [1] was 0.17.

Take “+A*+G*+C*A*T*T*T*T*G*G*C*A*T*+C*+A*+C (antisense AGCATTTTGGCATCAC; sugars from the 5' end l3 d10 l3, all phosphorothioate, methylation of C not given here) [A04020MR]”: the “Relative mCD39 mRNA expression (compared to non-treated cells)” value in data set [1] was found to be 0.06.

Take “+G*+G*+T*G*G*C*A*C*T*G*T*T*C*G*+T*+A*+G (antisense GGTGGCACTGTTCGTAG; sugars from the 5' end l3 d11 l3, all phosphorothioate, methylation of C not given here) [A04030MR]”: in data set [1], the “Relative mCD39 mRNA expression (compared to non-treated cells)” value is on record as 0.21.

Turning to “+G*+G*+T*A*C*T*T*C*T*C*C*T*T*+T*+A*+C (antisense GGTACTTCTCCTTTAC; sugars from the 5' end l3 d10 l3, all phosphorothioate, methylation of C not given here) [A04016MR]”, the “Relative mCD39 mRNA expression (compared to non-treated cells)” value in data set [1] is on record as 0.17.

For “+G*+C*+C*C*A*G*C*A*G*A*T*A*G*+T*+T*+A (antisense GCCCAGCAGATAGTTA; sugars from the 5' end l3 d10 l3, all phosphorothioate, methylation of C not given here) [A04012MR]”, the “Relative mCD39 mRNA expression (compared to non-treated cells)” value in data set [1] was found to be 0.78.

With “+G*+C*+T*A*T*A*C*T*G*C*C*T*C*+T*+T*+T (antisense GCTATACTGCCTCTTT; sugars from the 5' end l3 d10 l3, all phosphorothioate, methylation of C not given here) [A04019MR]”, the “Relative mCD39 mRNA expression (compared to non-treated cells)” value in data set [1] is 0.05.

For “+T*+T*+C*G*T*A*G*T*C*T*C*C*A*G*+T*+G*+C (antisense TTCGTAGTCTCCAGTGC; sugars from the 5' end l3 d11 l3, all phosphorothioate, methylation of C not given here) [A04028MR]”, the “Relative mCD39 mRNA expression (compared to non-treated cells)” value in data set [1] was found to be 0.02.

With “+C*+C*+A*C*T*T*G*T*A*G*A*T*G*+T*+A*+C (antisense CCACTTGTAGATGTAC; sugars from the 5' end l3 d10 l3, all phosphorothioate, methylation of C not given here) [A04010MR]”, the “Relative mCD39 mRNA expression (compared to non-treated cells)” value in data set [1] is 0.25.

For the substance “+T*+C*+G*T*A*G*T*C*T*C*C*A*G*T*+G*+C*+C (antisense TCGTAGTCTCCAGTGCC; sugars from the 5' end l3 d11 l3, all phosphorothioate, methylation of C not given here) [A04027MR]”, in data set [1], the “Relative mCD39 mRNA expression (compared to non-treated cells)” value is on record as 0.03.

In the case of “+T*+G*+T*T*C*G*T*A*G*T*C*T*C*C*+A*+G*+T (antisense TGTTCGTAGTCTCCAGT; sugars from the 5' end l3 d11 l3, all phosphorothioate, methylation of C not given here) [A04029MR]”, the “Relative mCD39 mRNA expression (compared to non-treated cells)” value in data set [1] is 0.11.

Regarding “+G*+C*+T*A*T*A*C*T*G*C*C*T*C*T*+T*+T*+C (antisense GCTATACTGCCTCTTTC; sugars from the 5' end l3 d11 l3, all phosphorothioate, methylation of C not given here) [A04032MR]”, the “Relative mCD39 mRNA expression (compared to non-treated cells)” value in data set [1] was determined as 0.02.

For the substance “+G*+T*+A*A*G*C*C*C*T*G*A*T*+G*+T*+T (antisense GTAAGCCCTGATGTT; sugars from the 5' end l3 d9 l3, all phosphorothioate, methylation of C not given here) [A04019H]”, in data set [2] (first screening round, normalized to HPRT1), the “Mean hCD39 mRNA expression (relative to untreated cells set as 1)” value came out at 0.03. The “Relative hCD39 mRNA expression (compared to non-treated cells)” value in data set [2] (setting [5]) came to 0.03; in data set [3] (setting [5]), 0.08. Besides, the “Residual hCD39 mRNA expression relative to untreated cells (set as 1)” value in data set [2] (third screening round) is recorded as 0.00; in data set [3] (third screening round), 0.01. Besides, the “Mean hCD39 mRNA expression normalized to HPRT1 relative to untreated control = 1” value in data set [3] (first screening round) was determined as 0.08. The mRNA inhibition in data set [4] (0.0045 μM, Table 8) is given as −11.65%; in data set [4] (0.0045 μM, Table 9) it was 22.53%; in data set [4] (0.013 μM, Table 8) it was 8.19%; in data set [4] (0.013 μM, Table 9) it was 49.52%; in data set [4] (0.04 μM, Table 8) it was 38.76%; in data set [4] (0.04 μM, Table 9), 62.95%. In addition, the mRNA inhibition in data set [4] (0.12 μM, Table 8) is 69.42%; in data set [4] (0.12 μM, Table 9) it was 82.63%; in data set [4] (0.4 μM, Table 8), 88.83%; in data set [4] (0.4 μM, Table 9), 93.96%; in data set [4] (1.1 μM, Table 8), 95.46%; in data set [4] (1.1 μM, Table 9), 97.94%. In addition, the mRNA inhibition in data set [4] (3.3 μM, Table 8) worked out at 97.89%; in data set [4] (3.3 μM, Table 9), 99.04%; in data set [4] (10 μM, Table 8), 98.39%; in data set [4] (10 μM, Table 9) it was 99.00%. Besides, the IC50 in data set [4] (first screening round (Table 8)) was 40 nM; in data set [4] (second screening round (Table 9)), 11.6 nM.
